Test results published in patent US7741359B2, “Hydrogen sulfide derivatives of non-steroidal anti-inflammatory drugs” (Antibe Therapeutics Inc., priority 2006, dated 2010).
Entries after “also recorded” stand apart in the source; their conditions may differ. One block for each compound: values may come before it.

What was measured:
COX-2 = target: T1, COX-2 (Rattus norvegicus, UniProt P35355); experiment: Rat airpouch assay, exudate PGE2 after zymosan (inhibition of COX-2 in vivo)
T1 construct: from tissue; host or cells: rat subcutaneous airpouch (in vivo, zymosan-induced inflammation)
T1 sequence (P35355 18-604): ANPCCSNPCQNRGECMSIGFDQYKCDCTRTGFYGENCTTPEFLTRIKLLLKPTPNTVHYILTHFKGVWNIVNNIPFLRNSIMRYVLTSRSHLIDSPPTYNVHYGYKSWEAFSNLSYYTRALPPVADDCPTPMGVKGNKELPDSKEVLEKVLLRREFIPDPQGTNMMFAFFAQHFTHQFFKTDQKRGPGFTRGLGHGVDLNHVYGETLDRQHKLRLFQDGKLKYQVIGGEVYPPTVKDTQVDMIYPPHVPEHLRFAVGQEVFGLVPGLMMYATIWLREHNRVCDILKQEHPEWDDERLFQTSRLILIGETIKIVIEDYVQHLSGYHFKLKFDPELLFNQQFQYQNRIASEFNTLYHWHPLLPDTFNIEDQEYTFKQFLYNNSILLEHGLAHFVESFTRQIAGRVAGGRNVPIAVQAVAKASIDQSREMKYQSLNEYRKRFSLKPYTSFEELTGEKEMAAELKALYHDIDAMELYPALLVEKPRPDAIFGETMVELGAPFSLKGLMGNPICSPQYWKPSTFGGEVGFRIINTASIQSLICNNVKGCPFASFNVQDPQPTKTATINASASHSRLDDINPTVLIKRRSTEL
Procedure: Briefly, a subcutaneous “pouch” is created by repeated injections of air over several days. Once established, inflammation in the pouch can be induced by injection of 1 mL of 1% zymosan. […] Another group of 5 rats was treated with the vehicle, but received an injection of 0.9% sterile saline into the pouch rather than zymosan. […]
Each group consisted of 5 rats.

[1] = system: gastric prostaglandin E2 (PGE2) synthesis (COX-1 and/or COX-2); experiment: Gastric prostaglandin E2 (PGE2) synthesis in excised rat gastric tissue; assay type: in vivo; conditions: oral; doses equimolar to diclofenac 20 mg/kg; tissue taken 3 h after administration; FIG. 2
Procedure: Briefly, the tissue samples were minced with scissors for 30 min, then placed in 1 mL of sodium phosphate buffer (pH 7.4) and placed in a shaking water bath (37° C.) for 20 min.

COX-1 = target: T2, COX-1 (Rattus norvegicus, UniProt Q63921); experiment: Whole blood thromboxane B2 synthesis of treated rats (inhibition of COX-1); assay type: in vivo; conditions: for COX-1 activity (whole blood thromboxane B2 synthesis): oral 60 μmol/kg, FIG. 4
T2 construct: whole blood thromboxane synthesis, which occurs via COX-1; from tissue; host or cells: rat whole blood (ex vivo clotting after oral dosing)
T2 sequence (Q63921 27-602): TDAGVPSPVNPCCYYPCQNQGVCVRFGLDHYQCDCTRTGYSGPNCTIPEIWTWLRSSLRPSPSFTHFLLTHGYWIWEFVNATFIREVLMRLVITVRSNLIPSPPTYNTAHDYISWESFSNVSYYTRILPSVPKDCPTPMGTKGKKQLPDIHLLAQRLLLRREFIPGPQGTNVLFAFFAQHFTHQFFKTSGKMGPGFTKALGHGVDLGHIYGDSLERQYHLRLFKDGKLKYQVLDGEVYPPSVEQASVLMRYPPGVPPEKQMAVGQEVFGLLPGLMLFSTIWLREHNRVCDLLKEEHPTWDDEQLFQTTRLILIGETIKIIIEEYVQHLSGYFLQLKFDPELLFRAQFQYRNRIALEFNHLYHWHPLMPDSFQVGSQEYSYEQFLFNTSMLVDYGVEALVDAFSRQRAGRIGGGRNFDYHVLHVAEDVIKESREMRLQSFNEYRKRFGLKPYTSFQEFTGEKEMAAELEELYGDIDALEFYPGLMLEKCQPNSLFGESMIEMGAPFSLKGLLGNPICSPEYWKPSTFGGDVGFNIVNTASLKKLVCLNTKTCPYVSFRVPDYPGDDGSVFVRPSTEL
Procedure: Inhibition of COX-1 was also measured using the same rats. […] The samples were then centrifuged for 3 min at 9,000 g and the supernatant was frozen at −80° C. for subsequent measurement of thromboxane B2 concentrations using a specific ELISA.
Inhibition of COX-1 was also measured using the same rats, using the same method as described for FIG. 4. […]

[2] = Incidence of gastric damage at the end of the leukocyte adherence experiment; conditions: for Percent Incidence of Gastric Damage: end of experiment
Procedure: Briefly, post-capillary mesenteric venules in anesthetized rats are examined under a light microscope. […] All test compounds were prepared in a vehicle of 1% carboxymethylcellulose. Changes in leukocyte adherence within the venule were recorded with a video camera attached to the microscope, and quantification of the numbers of adherent leukocytes was performed in a blind manner through evaluation of the videotaped images. Each group consisted of 5 male, Wistar rats weighing 150-175 g. A leukocyte was considered “adherent” if it remained stationary for 30 seconds or more (results below are expressed as the mean ± SEM). At the end of the experiment the stomach was opened and examined for the presence of gastric damage, under a dissecting microscope.

[3] = system: leukocyte adherence to the vascular endothelium; experiment: Leukocyte adherence to the vascular endothelium, intravital microscopy of mesenteric venules; conditions: for Number of Adherent Leukocytes: mean ± SEM
Procedure: Briefly, post-capillary mesenteric venules in anesthetized rats are examined under a light microscope. […] All test compounds were prepared in a vehicle of 1% carboxymethylcellulose. Changes in leukocyte adherence within the venule were recorded with a video camera attached to the microscope, and quantification of the numbers of adherent leukocytes was performed in a blind manner through evaluation of the videotaped images. Each group consisted of 5 male, Wistar rats weighing 150-175 g. A leukocyte was considered “adherent” if it remained stationary for 30 seconds or more (results below are expressed as the mean ± SEM).

[4] = Gastric damage (gastric damage score) in rats after oral dosing; conditions: for gastric damage: oral 60 μmol/kg, evaluated 3 hours later, FIG. 3
[5] = Carrageenan hindpaw edema model; assay type: in vivo, rat; conditions: oral, dose equimolar to diclofenac at 3 mg/kg, 30 min prior to carrageenan, compared with diclofenac, FIGS. 9, 10
Procedure: Male, Wistar rats weighing 175-200 g were given the test compounds orally 30 min prior to subplantar injection of 100 ul of 1% lambda carrageenan. Paw volume measured using an Ugo Basile hydroplethysmometer prior to carrageenan injection and at 1-h intervals thereafter for 5 h.

[6] = Healing of acetic acid-induced gastric ulcers; assay type: in vivo, rat; conditions: starting 3 days after ulcer induction, FIG. 13
Procedure: Gastric ulcers were induced via serosal application of acetic acid, as described by Elliott et al., A nitric oxide-releasing nonsteroidal anti-inflammatory drug accelerates gastric ulcer healing in rats. Gastroenterology 1995; 109: 524-530. […] After 4 days of such treatment, the rats were euthanized and the stomach was excised and photographed. The area (in mm^2) of the ulcer was determined planimetrically by an individual unaware of the treatments given to the rats. In a subgroup of 5 rats euthanized 3 days after induction of gastric ulcers (i.e., prior to initiation of drug treatment), the mean surface area of the ulcers was 24±2 mm^2.

[7] = 60 μmol/kg twice-daily orally for 4 days

Structure (SMILES): Oc1ccc(-c2cc(=S)ss2)cc1 [ADT-OH, 5-p-hydroxyphenyl-1,2-dithiole-3-thione, reference compound]
COX-2 activity (exudate PGE2) (COX-2; hydrogen sulfide releasing moieties alone, dose not given): neither of the hydrogen sulfide releasing moieties (ADT-OH and TBZ) significantly affected COX-2 activity | gastric PGE2 synthesis [1]: did not reduce gastric PGE2 synthesis when compared to vehicle | COX-1 activity (whole blood thromboxane synthesis) (COX-1; hydrogen sulfide releasing moieties alone, dose not given, FIG. 8): neither of the hydrogen sulfide releasing moieties (ADT-OH and TBZ) significantly affected COX-1 activity

Structure (SMILES): CC(=O)Oc1ccccc1C(=O)Oc1ccc(-c2cc(=S)ss2)cc1 [Compound I, 4-(5-thioxo-5H-1,2-dithiol-3-yl)phenyl 2-acetoxybenzoate]
percent incidence of gastric damage compared to the parent NSAID alone ([2]; intragastric 30 μmol/kg): significantly reduced the percent incidence of gastric damage when compared to aspirin alone | Percent Incidence of Gastric Damage ([2]; intragastric 30 μmol/kg): 20% | number of adherent leukocytes compared to the parent NSAID alone ([3]; intragastric 30 μmol/kg): significantly reduced the number of adherent leukocytes per 100 μm vessel length when compared to aspirin alone | Number of Adherent Leukocytes ([3]; intragastric 30 μmol/kg): 2.5 ± 0.3 per 100 μm vessel length

Number of Adherent Leukocytes ([3]; intragastric 30 μmol/kg): 1.7 ± 0.3 per 100 μm vessel length
Structure (SMILES): O=C(Cc1ccccc1Nc1c(F)cccc1Cl)Oc1ccc(-c2cc(=S)ss2)cc1 [Compound III, [2-(2-chloro-6-fluorophenylamino)-phenyl]-acetic acid 4-(5-thioxo-5H-[1,2]dithiol-3-yl)-phenyl ester]
percent incidence of gastric damage compared to the parent NSAID alone ([2]; intragastric 30 μmol/kg): still showed no incidences of gastric damage | Percent Incidence of Gastric Damage ([2]; intragastric 30 μmol/kg): 0% | number of adherent leukocytes compared to the parent NSAID alone ([3]; intragastric 30 μmol/kg): significantly reduced the number of adherent leukocytes per 100 μm vessel length when compared to lumiracoxib alone

Structure (SMILES): COc1ccc2cc(C(C)C(=O)Oc3ccc(-c4cc(=S)ss4)cc3)ccc2c1 (stereo not drawn) [Compound V, 2-(6-Methoxy-naphthale-2-yl)-propionic acid 4-(5-thioxo-5-H-[1,2]dithiol-3-yl)-phenyl ester]
gastric damage [4]: not detectable; also recorded: elicited significantly less damage than naproxen itself | COX-2 activity (exudate PGE2) (COX-2; 60 μmol/kg, FIG. 11): significantly suppressed COX-2 activity as compared to the group treated with vehicle | percent incidence of gastric damage compared to the parent NSAID alone ([2]; intragastric 60 μmol/kg): significantly reduced the percent incidence of gastric damage when compared to naproxen alone | Percent Incidence of Gastric Damage ([2]; intragastric 60 μmol/kg): 0% | number of adherent leukocytes compared to the parent NSAID alone ([3]; intragastric 60 μmol/kg): significantly reduced the number of adherent leukocytes per 100 μm vessel length | Number of Adherent Leukocytes ([3]; intragastric 60 μmol/kg): 3.5 ± 0.7 per 100 μm vessel length | COX-1 activity (whole blood thromboxane B2 synthesis) (COX-1): significantly (*p<0.05) inhibited COX-1 activity as compared to the vehicle-treated group; also recorded: somewhat less with Compound V than with naproxen or Compound XX

Structure (SMILES): CC(=O)Oc1ccccc1C(=O)Oc1ccc(C(N)=S)cc1 [Compound XVI, 2-Acetoxy-benzoic acid 4-thiocarbamoyl-phenyl ester]
percent incidence of gastric damage compared to the parent NSAID alone ([2]; intragastric 30 μmol/kg): significantly reduced the percent incidence of gastric damage when compared to aspirin alone | Percent Incidence of Gastric Damage ([2]; intragastric 30 μmol/kg): 0% | number of adherent leukocytes compared to the parent NSAID alone ([3]; intragastric 30 μmol/kg): significantly reduced the number of adherent leukocytes per 100 μm vessel length when compared to aspirin alone | Number of Adherent Leukocytes ([3]; intragastric 30 μmol/kg): 2.3 ± 0.3 per 100 μm vessel length

Structure (SMILES): NC(=S)c1ccc(OC(=O)Cc2ccccc2Nc2c(Cl)cccc2Cl)cc1 [Compound XVII, [2-(2,6-dichloro-phenylamino)-phenyl]-acetic acid 4-thiocarbamoyl-phenyl ester]
gastric damage score ([4]; rats fasted 18 h, oral, doses equimolar to diclofenac 20 mg/kg, 3 h after administration, FIG. 1): no gastric damage was seen; also recorded: elicited significantly less gastric damage than diclofenac | paw edema (paw volume increase) [5]: reduced paw edema to a greater extent | paw edema (paw volume increase) ([5]; 3 mg/kg): comparable to the effect of diclofenac at a dose of 10 mg/kg | percent incidence of gastric damage compared to the parent NSAID alone ([2]; intragastric 30 μmol/kg): significantly reduced the percent incidence of gastric damage when compared to diclofenac alone | Percent Incidence of Gastric Damage ([2]; intragastric 30 μmol/kg): 20% | number of adherent leukocytes compared to the parent NSAID alone ([3]; intragastric 30 μmol/kg): significantly reduced the number of adherent leukocytes per 100 μm vessel length | Number of Adherent Leukocytes ([3]; intragastric 30 μmol/kg): 2.8 ± 0.5 per 100 μm vessel length | inhibition at 4.1 mg/kg (COX-1; rat, po, read-out: inhibition of whole blood thromboxane synthesis (COX-1)): > 80% | gastric ulcer healing (ulcer area) ([6]; 30 μmol/kg twice-daily orally for 4 days): exhibited significantly greater healing

Structure (SMILES): Cc1ccc(Nc2c(F)cccc2Cl)c(CC(=O)Oc2ccc(C(N)=S)cc2)c1 [Compound XVIII, 4-thiocarbamoylphenyl 2-(2-(2-chloro-6-fluorophenylamino)-5-methylphenyl)acetate]
percent incidence of gastric damage compared to the parent NSAID alone ([2]; intragastric 30 μmol/kg): still showed no incidences of gastric damage | Percent Incidence of Gastric Damage ([2]; intragastric 30 μmol/kg): 0% | number of adherent leukocytes compared to the parent NSAID alone ([3]; intragastric 30 μmol/kg): significantly reduced the number of adherent leukocytes per 100 μm vessel length when compared to lumiracoxib alone | Number of Adherent Leukocytes ([3]; intragastric 30 μmol/kg): 2.3 ± 0.4 per 100 μm vessel length

Structure (SMILES): COc1ccc2cc(C(C)C(=O)Oc3ccc(C(N)=S)cc3)ccc2c1 (stereo not drawn) [Compound XX, 2-(6-Methoxy-naphthalen-2-yl)-propionic acid 4-thiocarbamyl-phenyl ester]
gastric damage [4]: not detectable; also recorded: elicited significantly less damage than naproxen itself | COX-1 activity (whole blood thromboxane B2 synthesis) (COX-1): significantly (*p<0.05) inhibited COX-1 activity as compared to the vehicle-treated group; also recorded: significantly better at inhibiting thromboxane B2 synthesis than the ADT-OH equivalent, Compound V | gastric ulcer healing (ulcer area) [6, 7]: exhibited significantly greater healing

Number of Adherent Leukocytes ([3]; intragastric 60 μmol/kg): 10.2 ± 0.4 per 100 μm vessel length
Structure (SMILES): COc1ccc2cc([C@H](C)C(=O)O)ccc2c1 [Naproxen, naproxen, reference compound]
COX-2 activity (exudate PGE2) (COX-2; 60 μmol/kg, FIG. 11): significantly suppressed COX-2 activity as compared to the group treated with vehicle | Percent Incidence of Gastric Damage ([2]; intragastric 60 μmol/kg): 100% | gastric ulcer healing (ulcer area) [6, 7]: exhibited similar degrees of healing
